Data published in ChEMBL document CHEMBL2202968, “2-Styrylindolium based fluorescent probes visualize neurofibrillary tangles in Alzheimer's disease” (Bioorg Med Chem Lett, 2012).
The source made the active and inactive calls. No cut-off for these calls is given here.

Key:
[1] = test system: HepG2; experiment: Cytotoxicity against human HepG2 cells after 24 hrs; assay type: cell-based; settings: HepG2, 24 h
[2] = Aqueous solubility of the compound; assay type: physicochemical; settings: buffer
[3] = organism: Danio rerio; experiment: Toxicity against Zebra fish embryo assessed as lesions up to 10 uM at 24 hrs post-fertilization by microscopic analysis; assay type: organism-based; settings: zebrafish, in vivo
[4] = biological target: T1, Microtubule-associated protein tau (Homo sapiens, UniProt P10636); experiment: Binding affinity to Tau aggregates in Alzheimer patient hippocampus by fluorescence microscopy; assay type: tissue-based
T1 sequence (P10636 whole entry): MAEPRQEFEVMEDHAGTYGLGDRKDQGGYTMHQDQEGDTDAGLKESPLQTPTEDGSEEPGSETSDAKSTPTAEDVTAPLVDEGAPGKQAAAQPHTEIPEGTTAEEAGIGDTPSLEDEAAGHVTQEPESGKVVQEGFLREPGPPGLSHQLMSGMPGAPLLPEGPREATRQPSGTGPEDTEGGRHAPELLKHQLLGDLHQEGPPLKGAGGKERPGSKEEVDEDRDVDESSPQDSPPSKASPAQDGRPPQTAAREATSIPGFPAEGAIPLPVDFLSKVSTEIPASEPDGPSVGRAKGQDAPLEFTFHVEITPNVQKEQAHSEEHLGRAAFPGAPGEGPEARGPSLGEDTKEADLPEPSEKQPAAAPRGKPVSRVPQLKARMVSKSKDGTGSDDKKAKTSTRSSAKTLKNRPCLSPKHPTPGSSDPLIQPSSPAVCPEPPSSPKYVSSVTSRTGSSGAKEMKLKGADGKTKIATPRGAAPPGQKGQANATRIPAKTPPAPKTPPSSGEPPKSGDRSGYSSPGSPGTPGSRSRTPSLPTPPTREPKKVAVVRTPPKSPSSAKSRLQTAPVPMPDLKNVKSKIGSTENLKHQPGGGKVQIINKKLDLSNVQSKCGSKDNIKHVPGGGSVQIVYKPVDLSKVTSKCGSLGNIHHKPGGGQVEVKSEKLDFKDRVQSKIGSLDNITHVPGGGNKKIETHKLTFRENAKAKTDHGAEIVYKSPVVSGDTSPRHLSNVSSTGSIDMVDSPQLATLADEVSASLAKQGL

[5] = biological target: Amyloid-beta precursor protein (Homo sapiens) (UniProt P05067); experiment: Binding affinity to amyloid beta aggregates in Alzheimer patient hippocampus by fluorescence microscopy; assay type: tissue-based
Chain of Amyloid-beta precursor protein (Homo sapiens) (P05067 whole entry): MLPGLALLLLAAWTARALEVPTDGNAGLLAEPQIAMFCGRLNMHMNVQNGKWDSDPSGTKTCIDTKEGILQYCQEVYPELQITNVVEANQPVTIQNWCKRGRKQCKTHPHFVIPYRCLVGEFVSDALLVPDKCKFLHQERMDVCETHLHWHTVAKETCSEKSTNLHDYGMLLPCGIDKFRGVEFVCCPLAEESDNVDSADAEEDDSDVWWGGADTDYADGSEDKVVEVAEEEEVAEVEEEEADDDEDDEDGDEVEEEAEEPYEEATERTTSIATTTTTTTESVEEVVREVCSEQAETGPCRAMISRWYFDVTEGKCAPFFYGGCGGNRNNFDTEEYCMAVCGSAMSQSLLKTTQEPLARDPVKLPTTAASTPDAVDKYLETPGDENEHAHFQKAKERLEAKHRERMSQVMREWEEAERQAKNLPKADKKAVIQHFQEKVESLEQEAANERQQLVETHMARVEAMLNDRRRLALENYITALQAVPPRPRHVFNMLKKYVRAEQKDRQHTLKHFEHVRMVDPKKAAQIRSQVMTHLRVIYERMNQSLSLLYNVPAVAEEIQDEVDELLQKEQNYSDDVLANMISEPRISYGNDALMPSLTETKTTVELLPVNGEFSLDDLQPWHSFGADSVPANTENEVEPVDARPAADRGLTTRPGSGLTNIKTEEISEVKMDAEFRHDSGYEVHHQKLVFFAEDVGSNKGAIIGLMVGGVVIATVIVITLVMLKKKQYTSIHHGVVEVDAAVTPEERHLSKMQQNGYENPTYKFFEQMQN

[6] = Displacement of thiazine red R from amyloid beta (1 to 40) aggregate after 30 mins by fluorimetric analysis
[7] = Binding affinity to amyloid beta (1 to 40) aggregate
[8] = biological target: T1, Microtubule-associated protein tau; experiment: Displacement of thiazine red R from human Tau aggregate expressed in Escherichia coli after 30 mins by fluorimetric analysis
[9] = organism: Danio rerio; experiment: Toxicity against juvenile Zebra fish assessed as lesions in yolk sac up to 10 uM at 72 hrs post-fertilization by microscopic analysis; assay type: organism-based; settings: zebrafish, in vivo

SMILES	EC50 [1] [µM]	solubility [2] [mg/mL]	Activity [3]	Activity [4]	Activity [5]	IC50 [6] [µM]	Ki [7] [µM]	IC50 [8] [µM]	Activity [9]
COc1ccc(/C=C/C2=[N+](C)c3ccccc3C2(C)C)cc1.[I-]	10.9	> 0.5	Non-toxic	Active	inactive	–	–	–	–
COc1cc(/C=C/c2ccc(O)cc2)ccc1/C=C/c1ccc(O)cc1	–	–	–	–	–	0.14	0.0268	–	–
CC(=C(C#N)C#N)c1ccc2cc(N(C)CCF)ccc2c1	–	–	–	–	–	1.47	–	1.63	–
C[N+]1=C(/C=C/c2ccc(O)cc2)C(C)(C)c2ccccc21.[I-]	–	> 0.5	–	Active	inactive	–	–	–	–
CNc1ccc(-c2nc3ccc(O)cc3s2)cc1 [PITTSBURGH COMPOUND B UNLABELLED]	–	–	–	–	–	–	–	3.26	–
CCN(CC)c1ccc(/C=C/C2=[N+](C)c3ccccc3C2(C)C)cc1.[I-]	8.57	> 0.5	Non-toxic	Active	inactive	–	–	–	–
C[N+]1=C(/C=C/c2ccc(N3CCCC3)cc2)C(C)(C)c2ccccc21.[I-]	8.31	> 0.5	Non-toxic	Active	inactive	–	–	0.0051	–
CCCC[N+]1=C(/C=C/c2ccc(N(CC)CC)cc2)C(C)(C)c2ccccc21.[I-]	0.93	> 0.1	Non-toxic	Active	inactive	0.00137	–	0.00141	Toxic
CN1CCN(c2ccc(/C=C/C3=[N+](C)c4ccccc4C3(C)C)cc2)CC1.[I-]	–	> 0.5	–	Active	inactive	–	–	–	–
CNc1ccc(-c2ccc3ccccc3n2)cc1	–	–	–	–	–	> 10	–	> 10	–
